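Following 48 hours of exposure in 96-well plates, responses at five concentrations were used to interpolate endpoints linearly. Abbreviation: GI50, concentration required for 50% inhibition of growth.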 Active and inactive are the calls of the source. Rule as the data show it: active = GI50 up to about 1.1 µM and inactive = higher.
How the values were obtained:
Assay in all cases: NCI anticancer screen, dose series, 48 h
[1] = test system: DU-145
[2] = test system: NCI-H226
[3] = test system: BT-549
[4] = test system: MCF7
[5] = test system: U-251
[6] = test system: HCT-116
[7] = test system: SN12C
[8] = test system: HCT-15
[9] = test system: ACHN
[10] = test system: SW-620
[11] = test system: NCI-H522
[12] = test system: NCI-H23
[13] = test system: COLO 205
[14] = test system: MDA-MB-231
[15] = test system: HOP-92
[16] = test system: NCI-H460
[17] = test system: M14
[18] = test system: UACC-257
[19] = test system: SK-OV-3
[20] = test system: EKVX
[21] = test system: A498
[22] = test system: LOX IMVI
[23] = test system: HCC 2998
[24] = test system: HOP-62
[25] = test system: MDA-N
[26] = test system: HT-29
[27] = test system: KM12
[28] = test system: IGROV-1
[29] = test system: OVCAR-3
[30] = test system: A549
[31] = test system: SF-268
[32] = test system: CAKI-1
[33] = test system: TK-10
[34] = test system: SK-MEL-5
[35] = test system: UO-31
[36] = test system: MOLT-4
[37] = test system: RPMI-8226
[38] = test system: OVCAR-8
[39] = test system: 786-0
[40] = test system: UACC-62
[41] = test system: OVCAR-4
[42] = test system: K562
[43] = test system: SF-539
[44] = test system: OVCAR-5
[45] = test system: Hs-578T
[46] = test system: SNB-75
[47] = test system: MDA-MB-435
[48] = test system: PC-3
[49] = test system: RXF 393
[50] = test system: CCRF-CEM
[51] = test system: NCI/ADR-RES
[52] = test system: SK-MEL-28
[53] = test system: SR
[54] = test system: SF-295
[55] = test system: Malme-3M
[56] = test system: SNB-19
[57] = test system: HL-60
[58] = test system: T47D
[59] = test system: SK-MEL-2

For `Fc1nc(-c2c3ccccc3c3sc4ccccc4n23)nc(N2CCOCCOCCOCCOCC2)n1`, which GI50 [1] is on record?
Its GI50 is > 100 µM (inactive).

And the GI50 [2]?
Its GI50 is > 100 µM (inactive).

And the GI50 [3]?
Its GI50 is 87.1 µM (inactive).

And the GI50 [4]?
The GI50 was > 100 µM (inactive).

And the GI50 [5]?
Its GI50 is 44.8 µM (inactive).

And the GI50 [6]?
Its GI50 is 62.4 µM (inactive).

And the GI50 [7]?
The GI50 was > 100 µM (inactive).

And the GI50 [8]?
Its GI50 is greater than 100 µM.

And the GI50 [9]?
Its GI50 is > 100 µM (inactive).

And the GI50 [10]?
Its GI50 is > 100 µM (inactive).

What about the GI50 [11] of the same molecule?
The GI50 was > 100 µM (inactive).

And the GI50 [12]?
The GI50 was > 100 µM (inactive).

And the GI50 [13]?
Its GI50 is > 100 µM (inactive).

What about the GI50 [14] of the same molecule?
The GI50 was 86.9 µM (inactive).

What about the GI50 [15] of the same molecule?
The GI50 was 20.9 µM (inactive).

And the GI50 [16]?
Its GI50 is > 100 µM (inactive).

And the GI50 [17]?
Its GI50 is > 100 µM (inactive).

And the GI50 [18]?
Its GI50 is > 100 µM (inactive).

And the GI50 [19]?
The GI50 was 71 µM (inactive).

What about the GI50 [20] of the same molecule?
Its GI50 is > 100 µM (inactive).

And the GI50 [21]?
The GI50 was 91.4 µM (inactive).

And the GI50 [22]?
The GI50 was > 100 µM (inactive).

What about the GI50 [23] of the same molecule?
The GI50 was > 100 µM (inactive).

What about the GI50 [24] of the same molecule?
Its GI50 is 23.7 µM (inactive).

What about the GI50 [25] of the same molecule?
Its GI50 is > 100 µM (inactive).

And the GI50 [26]?
Its GI50 is 46.6 µM (inactive).

What about the GI50 [27] of the same molecule?
Its GI50 is > 100 µM (inactive).

And the GI50 [28]?
The GI50 was > 100 µM (inactive).

What about the GI50 [29] of the same molecule?
The GI50 was 63.1 µM (inactive).

What about the GI50 [30] of the same molecule?
The GI50 was > 100 µM (inactive).

And the GI50 [31]?
The GI50 was > 100 µM (inactive).

And the GI50 [32]?
Its GI50 is > 100 µM (inactive).

And the GI50 [33]?
Its GI50 is 54.2 µM (inactive).

What about the GI50 [34] of the same molecule?
Its GI50 is > 100 µM (inactive).

What about the GI50 [35] of the same molecule?
Its GI50 is > 100 µM (inactive).

And the GI50 [36]?
The GI50 was 66.4 µM (inactive).

And the GI50 [37]?
Its GI50 is > 100 µM (inactive).

And the GI50 [38]?
The GI50 was 40.2 µM (inactive).

What about the GI50 [39] of the same molecule?
The GI50 was 32.8 µM (inactive).

And the GI50 [40]?
The GI50 was > 100 µM (inactive).

And the GI50 [41]?
The GI50 was > 100 µM (inactive).

And the GI50 [42]?
The GI50 was > 100 µM (inactive).

And the GI50 [43]?
The GI50 was 21.6 µM (inactive).

What about the GI50 [44] of the same molecule?
Its GI50 is > 100 µM (inactive).

And the GI50 [45]?
The GI50 was 37.3 µM (inactive).

What about the GI50 [46] of the same molecule?
The GI50 was 2.56 µM (inactive).

And the GI50 [47]?
The GI50 was > 100 µM (inactive).

What about the GI50 [48] of the same molecule?
The GI50 was > 100 µM (inactive).

What about the GI50 [49] of the same molecule?
Its GI50 is 18.5 µM (inactive).

What about the GI50 [50] of the same molecule?
Its GI50 is 54.5 µM (inactive).

What about the GI50 [51] of the same molecule?
The GI50 was 56.8 µM (inactive).

What about the GI50 [52] of the same molecule?
The GI50 was > 100 µM (inactive).

What about the GI50 [53] of the same molecule?
Its GI50 is 11.2 µM (inactive).

And the GI50 [54]?
Its GI50 is 63 µM (inactive).

And the GI50 [55]?
Its GI50 is > 100 µM (inactive).

And the GI50 [56]?
The GI50 was 35.6 µM (inactive).

What does the source list for `C[C@@H](NC(C#N)c1ccco1)c1ccccc1` (some centres undefined)?
GI50 [1]: > 100 µM (inactive); GI50 [2]: > 100 µM (inactive); GI50 [3]: > 100 µM (inactive); GI50 [4]: > 100 µM (inactive); GI50 [5]: > 100 µM (inactive); GI50 [6]: > 100 µM (inactive); GI50 [7]: > 100 µM (inactive); GI50 [8]: > 100 µM; GI50 [9]: > 100 µM (inactive); GI50 [10]: > 100 µM (inactive); GI50 [12]: > 100 µM (inactive); GI50 [57]: > 100 µM (inactive); GI50 [15]: 30.4 µM (inactive); GI50 [16]: > 100 µM (inactive); GI50 [17]: > 100 µM (inactive); GI50 [18]: > 100 µM (inactive); GI50 [19]: > 100 µM (inactive); GI50 [20]: > 100 µM (inactive); GI50 [21]: > 100 µM (inactive); GI50 [23]: 32.7 µM (inactive); GI50 [24]: > 100 µM (inactive); GI50 [25]: > 100 µM (inactive); GI50 [26]: > 100 µM (inactive); GI50 [27]: > 100 µM (inactive); GI50 [28]: > 100 µM (inactive); GI50 [29]: > 100 µM (inactive); GI50 [30]: > 100 µM (inactive); GI50 [31]: > 100 µM (inactive); GI50 [33]: > 100 µM (inactive); GI50 [34]: > 100 µM (inactive); GI50 [35]: > 100 µM (inactive); GI50 [36]: > 100 µM (inactive); GI50 [37]: > 100 µM (inactive); GI50 [38]: > 100 µM (inactive); GI50 [39]: > 100 µM (inactive); GI50 [40]: > 100 µM (inactive); GI50 [42]: > 100 µM (inactive); GI50 [43]: > 100 µM (inactive); GI50 [44]: > 100 µM (inactive); GI50 [45]: > 100 µM (inactive); GI50 [46]: > 100 µM (inactive); GI50 [47]: > 100 µM (inactive); GI50 [58]: > 100 µM (inactive); GI50 [48]: > 100 µM (inactive); GI50 [49]: > 100 µM (inactive); GI50 [50]: > 100 µM (inactive); GI50 [51]: > 100 µM (inactive); GI50 [52]: > 100 µM (inactive); GI50 [53]: > 100 µM (inactive); GI50 [54]: > 100 µM (inactive); GI50 [55]: > 100 µM (inactive); GI50 [56]: > 100 µM (inactive)

What does the source list for `COc1cc(C(=O)NNC(=O)c2cc(Br)ccc2NC(=O)c2cccs2)cc(OC)c1OC`?
GI50 [1]: 29.3 µM (inactive); GI50 [2]: 13.7 µM (inactive); GI50 [3]: 22.3 µM (inactive); GI50 [4]: 14.4 µM (inactive); GI50 [5]: 17.1 µM (inactive); GI50 [6]: 18.7 µM (inactive); GI50 [7]: 20 µM (inactive); GI50 [8]: 15.5 µM; GI50 [9]: 17 µM (inactive); GI50 [10]: 28.1 µM (inactive); GI50 [11]: 20.7 µM (inactive); GI50 [12]: 19.4 µM (inactive); GI50 [13]: 12.9 µM (inactive); GI50 [57]: 14.8 µM (inactive); GI50 [15]: 15.3 µM (inactive); GI50 [16]: 20.2 µM (inactive); GI50 [17]: 19.3 µM (inactive); GI50 [18]: 22.5 µM (inactive); GI50 [19]: 9.16 µM (inactive); GI50 [20]: 6.65 µM (inactive); GI50 [21]: 19.1 µM (inactive); GI50 [22]: 15.3 µM (inactive); GI50 [24]: 16.3 µM (inactive); GI50 [25]: 24.8 µM (inactive); GI50 [26]: 19.5 µM (inactive); GI50 [27]: 22.8 µM (inactive); GI50 [28]: 22.6 µM (inactive); GI50 [59]: 18.6 µM (inactive); GI50 [29]: 24.2 µM (inactive); GI50 [30]: 21.2 µM (inactive); GI50 [31]: 9.64 µM (inactive); GI50 [32]: 29 µM (inactive); GI50 [33]: 25.3 µM (inactive); GI50 [34]: 13.8 µM (inactive); GI50 [35]: 14.4 µM (inactive); GI50 [36]: 27.1 µM (inactive); GI50 [37]: 13.2 µM (inactive); GI50 [38]: 19.1 µM (inactive); GI50 [39]: 17.7 µM (inactive); GI50 [40]: 16.7 µM (inactive); GI50 [41]: 12 µM (inactive); GI50 [42]: < 0.01 µM (active); GI50 [43]: 15.4 µM (inactive); GI50 [44]: 16.4 µM (inactive); GI50 [45]: 20.9 µM (inactive); GI50 [46]: 4.91 µM (inactive); GI50 [47]: 19.8 µM (inactive); GI50 [58]: 19.5 µM (inactive); GI50 [48]: 24 µM (inactive); GI50 [49]: 13.1 µM (inactive); GI50 [50]: 18.1 µM (inactive); GI50 [51]: 18.5 µM (inactive); GI50 [53]: 22.9 µM (inactive); GI50 [54]: 19.1 µM (inactive); GI50 [55]: 23.2 µM (inactive); GI50 [56]: 23.1 µM (inactive)

— ChEMBL document CHEMBL1201862, “PubChem BioAssay data set” (2004)
